Data from US12220703B2, “Multi function spinning platform” (Danmarks Tekniske Universitet, priority 2018, dated 2025).

Test system: P. aeruginosa biofilm
Assay: Antibiotic treatment of mature biofilm in perfusion on the centrifugal microfluidic disc, propidium iodide dead/alive biomass by confocal microscopy
Format: cell-based
Conditions: 72 hours biofilm, after 24 hours of antibiotic perfusion, ciprofloxacin 4 μg/mL
Experimental: The following is an example of how to set up an experiment using the centrifugal microfluidic disc according to the present disclosure. Initially, the entire system including the microfluidic channels is sterilized. After the sterilization of the disc, the system was filled with a medium and left overnight at a low flow rate (pump set on 0.5 RPM, around 60 μL/min). The inoculation of the bacteria in the sterilized disc was achieved by addition of 40 μL overnight culture of 1:100 diluted P. aeruginosa though the inoculation channel situated in close proximity to the cell culture chamber (see FIG. 30). During inoculation, the loading opening was closed to create a back-pressure avoiding bacteria occlusion in the serpentine channel. The adhesion of the bacteria in the culture chamber was carried out in stop flow for one hour, followed by rotation at the set frequency. The total volume of the cell chamber is around 55 μL and only 40 μL of PAO1 was inoculated in order to prevent the introduction of bacteria in the inlet channel. The inoculation in the flow system was achieved by stopping the pump and adding 250 μL overnight culture of 1:100 diluted P. aeruginosa in the selected channels in proximity of the flow chamber. It was important to clamp the silicone tubes which were feeding the channels in order to avoid a back flow. […]

With O=C(O)c1cn(C2CC2)c2cc(N3CCNCC3)c(F)cc2c1=O [antibiotic, Ciprofloxacin] the “bacteria dead after antibiotic perfusion” value (flow rate 0.3 μL/min) was “around 70%” and the “bacteria dead after antibiotic perfusion” value (flow rate 1 μL/min) was “around 50%”.
